In assay [1] the test system is human multiple myeloma cell line, OPM-2. The assay can be described thus: Cell viability assay (OPM-2 10 FBS), CellTiter-Glo. The class given is cell-based. The gist of the method:
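IC50 values come from 4-parameter logistic fits of luminescence signals reflecting cell viability. Treatment lasted 16 h at 37 °C in complete medium with 10% FBS, starting from 3000 cells/well.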
(In general: In ATP-based viability assays light output follows the ATP content of the culture.)

Assay [2] concerns the target recombinant human Mcl-1 (residues 171-327) / Bim interaction (Homo sapiens (Human), UniProt Q07820). The assay is described as follows: biochemical. The class given is binding. The following applies: read-out: Mcl-1 HTRF IC50. On the technique in general: In TR-FRET formats the signal depends on donor and acceptor labels being close together.
The mark [3] stands for this setting: Homo sapiens, OPM-2, 16 h, read-out: OPM-2 10% FBS IC50 IP, OPM-2 cells, 10% FBS, 16 h incubation.
Where [4] appears, read: 0.1 nM Mcl-1(171-327), 0.05 nM biotin-Bim (51-76).
Setting [5] is: Homo sapiens, OPM-2, 16 h, read-out: OPM-2 10% FBS IC50 IP, OPM-2 cells, 10% FBS, 16 h, CellTiter-Glo.
The mark [6] stands for this setting: TR-FRET, Mcl-1(171-327) / biotin-Bim (51-76).
Where [7] appears, read: read-out: OPM-2 10% FBS IC50 IP, OPM-2 cells, 10% FBS, 16 h, CellTiter-Glo.

Where two headings read alike, the source gives them in different places.

The text below walks through data of patent US10821115B2, “Compounds that inhibit Mcl-1 protein” (priority 2017, dated 2020).

Chain of recombinant human Mcl-1 (residues 171-327) / Bim interaction (Q07820 171-327): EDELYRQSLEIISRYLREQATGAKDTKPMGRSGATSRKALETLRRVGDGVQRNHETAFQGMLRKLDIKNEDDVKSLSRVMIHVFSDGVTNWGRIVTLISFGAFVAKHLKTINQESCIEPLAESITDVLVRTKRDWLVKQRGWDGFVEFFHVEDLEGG

With `CC(C)CO[C@]1(CN2CCN(C3COC3)CC2)/C=C/C[C@H](C)[C@@H](C)S(=O)(=O)NC(=O)c2ccc3c(c2)N(C[C@@H]2CC[C@H]21)C[C@@]1(CCCc2cc(Cl)ccc21)CO3` [Example 355], the IC50 in assay [1] (setting [3]) turned out to be 272 nM; in assay [2] (setting [4]), 0.172 nM.

Turning to `C[C@@H]1[C@@H](C)CC2C=CC[C@@](O)(C2)[C@@H]2CC[C@H]2CN2C[C@@]3(CCCc4cc(Cl)ccc43)COc3ccc(cc32)C(=O)NS1(=O)=O` (stereo in doubt) [Example 100058, (1S,3′R,6′R,7′R,11′S,13′S,14′R)-6-chloro-7′-hydroxy-13′,14′-dimethyl-3,4-dihydro-2H,17′H-spiro[naphthalene-1,24′-[22]oxa[15]thia[1,16]diazapentacyclo [16.7.2.1~7,11~.0~3,6~.0~21,26~]octacosa [9,18,20,26]tetraen]-17′-one 15′,15′-dioxide], the IC50 in assay [1] (setting [5]) was determined as 3360 nM; in assay [2] (setting [6]), 1.76 nM.

For `CC[C@]1(OC)/C=C/C[C@H](C)[C@@H](C)S(=O)(=O)NC(=O)c2ccc3c(c2)N(C[C@@H]2CC[C@H]21)C[C@@]1(CCCc2cc(Cl)ccc21)CO3` [Example 100234, (1S,3′R,6′R,7′S,8′E,11′S,12′R)-6-chloro-7′-ethyl-7′-methoxy-11′,12′-dimethyl-3,4-dihydro-2H,15′H-spiro[naphthalene-1,22′-[20]oxa[13]thia[1,14]diazatetracyclo [14.7.2.0~3,6~.0~19,24~]pentacosa[8,16,18,24]tetraen]-15′-one 13′,13′-dioxide], the IC50 in assay [1] (setting [5]) came out at 449 nM; in assay [2] (setting [6]), 0.237 nM.

As for `CO[C@@]1(CN2CCN3CCN(C(C)C)C[C@@H]3C2)/C=C/C[C@H](C)[C@@H](C)S(=O)(=O)NC(=O)c2ccc3c(c2)N(C[C@@H]2CC[C@H]21)C[C@@]1(CCCc2cc(Cl)ccc21)CO3` (single isomer, unassigned) [Example 241], the IC50 in assay [1] (read-out: OPM-2 10% FBS IC50 IP, OPM-2 cells, 10% FBS, 16 h incubation) stood at 137 nM; in assay [2] (setting [4]), 0.15 nM.

Take `CO[C@@]1(c2cccc(F)n2)/C=C/C[C@H](C)[C@@H](C)S(=O)(=O)NC(=O)c2ccc3c(c2)N(C[C@@H]2CC[C@H]21)C[C@@]1(CCCc2cc(Cl)ccc21)CO3` (single isomer, unassigned) [Example 100339]: the IC50 was 1380 nM in assay [1] (setting [5]) and 0.186 nM in assay [2] (setting [6]).

`CC(=O)N[C@@]1(CO)CCC[C@H](C)[C@@H](C)S(=O)(=O)NC(=O)c2ccc3c(c2)N(C[C@@H]2CC[C@H]21)C[C@@]1(CCCc2cc(Cl)ccc21)CO3` [Example 100265, N-((1S,3′R,6′R,7′S,11′S,12′R)-6-chloro-7′-(hydroxymethyl)-11′,12′-dimethyl-13′,13′-dioxido-15′-oxo-3,4-dihydro-2H-spiro[naphthalene-1,22′-[20]oxa[13]thia[1,14]diazatetracyclo [14.7.2.0~3,6~.0~19,24~]pentacosa[16,18,24]trien]-7′-yl)acetamide]: the values for the IC50 in assay [1] (setting [5]) and in assay [2] (setting [6]) were 441 nM and 0.439 nM, respectively.

Turning to `C[C@@H]1[C@@H](C)C/C=C/[C@](O)(c2cnc(Cl)n2C)[C@@H]2CC[C@H]2CN2C[C@@]3(CCCc4cc(Cl)ccc43)COc3ccc(cc32)C(=O)NS1(=O)=O` (single isomer, unassigned) [Example 100543], the IC50 in assay [1] (setting [5]) is 821 nM; in assay [2] (setting [6]), 0.451 nM.

With `CO[C@]1(CN2C[C@@H]3C[C@H]2CN3C(C)C)/C=C/C[C@H](C)[C@@H](C)S(=O)(=O)NC(=O)c2ccc3c(c2)N(C[C@@H]2CC[C@H]21)C[C@@]1(CCCc2cc(Cl)ccc21)CO3` [Example 315, (1S,3′R,6′R,7′R,8′E,11′S,12′R)-6-chloro-7′-methoxy-11′,12′-dimethyl-7′-(((1S,4S)-5-(1-methylethyl)-2,5-diazabicyclo[2.2.1]hept-2-yl)methyl)-3,4-dihydro-2H,15′H-spiro[naphthalene-1,22′-[20]oxa[13]thia[1,14]diazatetracyclo [14.7.2.0~3,6~.0~19,24~]pentacosa[8,16,18,24]tetraen]-15′-one 13′,13′-dioxide], the IC50 in assay [1] (setting [3]) was 124 nM; in assay [2] (setting [4]), 0.122 nM.

Regarding `CO[C@@]1(CC(=O)N(C)C)CCC[C@H](C)[C@@H](C)S(=O)(=O)NC(=O)c2ccc3c(c2)N(C[C@@H]2CC[C@H]21)C[C@@]1(CCCc2cc(Cl)ccc21)CO3` [Example 100176, 2-((1S,3′R,6′R,7′R,11′S,12′R)-6-chloro-7′-methoxy-11′,12′-dimethyl-13′,13′-dioxido-15′-oxo-3,4-dihydro-2H-spiro[naphthalene-1,22′-[20]oxa[13]thia[1,14]diazatetracyclo [14.7.2.0~3,6~.0~19,24~]pentacosa[16,18,24]trien]-7′-yl)-N,N-dimethylacetamide], the IC50 came to 603 nM in assay [1] (setting [5]) and 0.48 nM in assay [2] (setting [6]).

Consider `COc1cccc([C@]2(O)/C=C/C[C@H](C)[C@@H](C)S(=O)(=O)NC(=O)c3ccc4c(c3)N(C[C@@H]3CC[C@H]32)C[C@@]2(CCCc3cc(Cl)ccc32)CO4)n1` [Example 100191, (1S,3′R,6′R,7′S,8′E,11′S,12′R)-6-chloro-7′-hydroxy-7′-(6-methoxy-2-pyridinyl)-11′,12′-dimethyl-3,4-dihydro-2H,15′H-spiro[naphthalene-1,22′-[20]oxa[13]thia[1,14]diazatetracyclo [14.7.2.0~3,6~.0~19,24~]pentacosa[8,16,18,24]tetraen]-15′-one 13′,13′-dioxide], for which the IC50 in assay [1] (setting [5]) stood at 557 nM; in assay [2] (setting [6]), 1.6 nM.

Take `CCO[C@]1(CN2CCN(CCOC)CC2)/C=C/C[C@H](C)[C@@H](C)S(=O)(=O)NC(=O)c2ccc3c(c2)N(C[C@@H]2CC[C@H]21)C[C@@]1(CCCc2cc(Cl)ccc21)CO3` [Example 123, (1S,3′R,6′R,7′R,8′E,11′S,12′R)-6-chloro-7′-ethoxy-7′-((4-(2-methoxyethyl)-1-piperazinyl)methyl)-11′,12′-dimethyl-3,4-dihydro-2H,15′H-spiro[naphthalene-1,22′-[20]oxa[13]thia[1,14]diazatetracyclo [14.7.2.0~3,6~.0~19,24~]pentacosa[8,16,18,24]tetraen]-15′-one 13′,13′-dioxide]: the IC50 in assay [1] (setting [3]) is 228 nM; in assay [2] (setting [4]), 0.205 nM.

Consider `CCOC(=O)CN1CCN(C[C@]2(OC)/C=C/C[C@H](C)[C@@H](C)S(=O)(=O)NC(=O)c3ccc4c(c3)N(C[C@@H]3CC[C@H]32)C[C@@]2(CCCc3cc(Cl)ccc32)CO4)CC1` [Example 261, ethyl (4-(((1S,3′R,6′R,7′S,8′E,11′S, 12′R)-6-chloro-7′-methoxy-11′,12′-dimethyl-13′,13′-dioxido-15′-oxo-3,4-dihydro-2H-spiro[naphthalene-1,22′-[20]oxa[13]thia[1,14]diazatetracyclo [14.7.2.0~3,6~.0~19,24~]pentacosa[8,16,18,24]tetraen]-7′-yl)methyl)-1-piperazinyl)acetate], for which the IC50 in assay [1] (setting [3]) is 146 nM; in assay [2] (setting [4]) it was 0.153 nM.

`C[C@@H]1[C@@H](C)CCC[C@](C)(O)[C@@H]2CC[C@H]2CN2C[C@@]3(CCCc4cc(Cl)ccc43)COc3ccc(cc32)C(=O)NS1(=O)=O` [Example 100049, (1S,3′R,6′R,7′S,11′S,12′R)-6-chloro-7′-hydroxy-7′,11′,12′-trimethyl-3,4-dihydro-2H,15′H-spiro[naphthalene-1,22′-[20]oxa[13]thia[1,14]diazatetracyclo [14.7.2.0~3,6~.0~19,24~]pentacosa[16,18,24]trien]-15′-one 13′,13′-dioxide]: the figures for the half-inhibitory concentration (IC50) in assay [1] (setting [5]) and in assay [2] (setting [6]) were 2150 nM and 1.26 nM, respectively.

Regarding `COCCN1CCN(C[C@@]2(OC)/C=C/C[C@H](C)[C@@H](C)S(=O)(=O)NC(=O)c3ccc4c(c3)N(C[C@@H]3CC[C@H]32)C[C@@]2(CCCc3cc(Cl)ccc32)CO4)CC1` [Example 61, (1S,3′R,6′R,7′R,8′E,11′S,12′R)-6-chloro-7′-methoxy-7′-((4-(2-methoxyethyl)-1-piperazinyl)methyl)-11′,12′-dimethyl-3,4-dihydro-2H,15′H-spiro[naphthalene-1,22′-[20]oxa[13]thia[1,14]diazatetracyclo [14.7.2.0~3,6~.0~19,24~]pentacosa[8,16,18,24]tetraen]-15′-one 13′,13′-dioxide], the IC50 in assay [1] (setting [3]) came to 124 nM; in assay [2] (setting [4]), 0.075 nM.

`COC(OC)c1cncc([C@]2(OC)/C=C/C[C@H](C)[C@@H](C)S(=O)(=O)NC(=O)c3ccc4c(c3)N(C[C@@H]3CC[C@H]32)C[C@@]2(CCCc3cc(Cl)ccc32)CO4)c1` (single isomer, unassigned) [Example 100514]: the values for the IC50 in assay [1] (setting [5]) and in assay [2] (setting [6]) were 231 nM and 0.088 nM, respectively.

For `C[C@@H]1[C@@H](C)C/C=C/[C@@](O)(CC(=O)N(C)CCN(C)C)[C@@H]2CC[C@H]2CN2C[C@@]3(CCCc4cc(Cl)ccc43)COc3ccc(cc32)C(=O)NS1(=O)=O` [Example 100281, 2-((1S,3′R,6′R,7′S,8′E,11′S,12′R)-6-chloro-7′-hydroxy-11′,12′-dimethyl-13′,13′-dioxido-15′-oxo-3,4-dihydro-2H-spiro[naphthalene-1,22′-[20]oxa[13]thia[1,14]diazatetracyclo [14.7.2.0~3,6~.0~19,24~]pentacosa[8,16,18,24]tetraen]-7′-yl)-N-(2-(dimethylamino)ethyl)-N-methylacetamide], the figures for the IC50 in assay [1] (setting [7]) and in assay [2] (setting [6]) were 352 nM and 0.117 nM, respectively.

As to `C[C@@H]1[C@@H](C)CCC[C@](O)([C@@H](C)C(=O)N(C)C)[C@@H]2CC[C@H]2CN2C[C@@]3(CCCc4cc(Cl)ccc43)COc3ccc(cc32)C(=O)NS1(=O)=O` (single isomer, unassigned) [Example 100119], the results for the IC50 in assay [1] (setting [7]) and in assay [2] (setting [6]) were 1570 nM and 1.72 nM, respectively.

For orientation: IC50 means the concentration needed to halve the response being measured.
